What is called MIC is the lowest concentration found to suppress growth. A lower MIC goes with a more susceptible organism.

This is an account of results in patent publication US5091399A, “Antimicrobial compounds and methods of use” (Rohm and Haas Company, priority 1990, dated 1992).

Holding throughout (experiment): MIC test (biocide), serial dilution in Trypticase Soy Broth
What all share (type): cell-based

The subject of assay [1] is Pseudomonas aeruginosa. Particulars: pH 7.0, starting concentration 500 ppm. On the procedure: (§1) Efficacy tests against eight fungi and four bacteria was carried out. A minimum inhibitory concentration (MIC) value was obtained using Trypticase Soy Broth, pH 7.0, and by preparing serial dilutions with a starting concentration of 500 ppm. A stock solution of the test compound was made in dimethyl sulfoxide (DMSO) or acetone. The MIC's of the compounds of this invention against the test organisms are shown in Table 3. |Test was run in Trypticase Soy Broth, pH 7.0 Starting concentration = 500

For assay [2], the system named is Escherichia coli. The following applies: pH 7.0, starting concentration 500 ppm. On the procedure:
as §1

The test system of assay [3] is Aureobasidium pullulans. Particulars: pH 7.0, starting concentration 500 ppm. On the procedure:
as §1

For assay [4], the system named is Pseudomonas fluorescens. Particulars: pH 7.0, starting concentration 500 ppm. On the procedure: as §1
In assay [5] the test system is Staphylococcus aureus. Particulars: pH 7.0, starting concentration 500 ppm. As to the method: as §1
In assay [6] the test system is Gleophyllum trabeum. Particulars: pH 7.0, starting concentration 500 ppm. On the procedure: as §1
Assay [7] concerns Penicillium funiculosum. Particulars: Talaromyces funiculosus, pH 7.0, starting concentration 500 ppm. As to the method: as §1
The subject of assay [8] is Chaetomium globosum. The following applies: pH 7.0, starting concentration 500 ppm. As to the method: as §1
Assay [9] concerns Saccharomyces cerevisiae. The following applies: pH 7.0, starting concentration 500 ppm. As to the method: as §1
The subject of assay [10] is Rhodotorula rubra. The following applies: pH 7.0, starting concentration 500 ppm. As to the method: as §1
In assay [11] the test system is Aspergillus niger. The following applies: pH 7.0, starting concentration 500 ppm. As to the method:
as §1

For assay [12], the system named is Cladosporium resinae. The following applies: Amorphotheca resinae, pH 7.0, starting concentration 500 ppm. On the procedure: as §1
Assay [13] concerns Chorella. The following applies: pH 7.0, starting concentration 500 ppm. On the procedure:
as §1

≈ marks a conversion by molar mass, not a printed value.

`Cn1sc(Sc2nc3ccccc3s2)cc1=O` [Compound 1, (2-methyl-4-isothiazolin-3-on-5-yl)-(benzothiazol-2'-yl)sulfide]: the MIC in [1] is more than 500 µg/mL; in [2] it was 500 µg/mL (≈ 1780 µM); in assay [3], 16 µg/mL (≈ 57.1 µM); in assay [4], 8 µg/mL (≈ 28.5 µM); in [5], 4 µg/mL (≈ 14.3 µM); in assay [6], less than 0.1 µg/mL. Moreover, the MIC came to 8 µg/mL (≈ 28.5 µM) in assay [7]; 32 µg/mL (≈ 114 µM) in [8]; 8 µg/mL (≈ 28.5 µM) in assay [9]; 16 µg/mL (≈ 57.1 µM) in assay [10]; 8 µg/mL (≈ 28.5 µM) in assay [11]; 1 µg/mL (≈ 3.57 µM) in assay [12].

Consider `CCCCCCCCn1sc(Sc2nc3ccccc3s2)c(Cl)c1=O` [Compound 2, [4-chloro-2-(n-octyl)-4-isothiazolin-3-on-5-yl]-(benzothiazol-2'-yl)sulfide], for which the MIC in assay [13] is 4 µg/mL (≈ 9.68 µM); in assay [1] it was more than 250 µg/mL; in assay [2], more than 250 µg/mL; in [3] it was 32 µg/mL (≈ 77.5 µM); in assay [5], 1 µg/mL (≈ 2.42 µM); in [11], 63 µg/mL (≈ 153 µM).

Regarding `Cc1c(Sc2nc3ccccc3s2)sn(-c2ccc(Cl)cc2)c1=O` [Compound 3, [4-methyl-2-(4-chlorophenyl)-4-isothiazolin-3-on-5-yl]-(benzothiazol-2'-yl)sulfide], the figures for the MIC in [1], in [4] and in assay [11] were 12.5 µg/mL (≈ 32 µM), 0.4 µg/mL (≈ 1.02 µM) and 12.5 µg/mL (≈ 32 µM), respectively.
